Test results reported in patent US20150051210A1, “Tyrosine Kinase Inhibitor Combinations and their Use” (Novartis AG, priority 2012, published 2015).

Experiments:
Type in all cases: cell-based
[1] = system: ERK and AKT phosphorylation in KYM-1, MG-63, Hs-683 cells; assay: Western blots in KYM-1, MG-63 and Hs-683 cells (data not shown); details: 24 h
Experimental: The indicated cell lines were seeded on 6-well-plates at a density of 500000 cells/well, left for 24 h to attach and then treated with a final concentration of 1 nM of the indicated compounds for another 24 h. Growth media were then removed, cells were washed twice with ice-cold PBS and lysed in 50 mmol/L Tris pH 7.5, 120 mmol/L NaCl, 20 mmol/L NaF, 1 mmol/L EDTA, 6 mmol/L EGTA, 1 mmol/L Benzamidin, 0.2 mmol/L PMSF, 100 mmol/L sodium vanadate, 1% NP-40. The protein concentration of cleared lysates was determined with the BCA Protein Assay Kit. 80 μg protein of each sample was separated by SDS-PAGE on NuPage 4-12% Tris-Bis Midi gels, transferred to a PVDF-membrane, and probed with antibodies as listed above. After washing and incubation with secondary HRP-linked antibodies, bands were visualized using ECL detection reagent.

RT-112 cells = assay: RT-112 Dual Inhibition: reversal of rescue with selective inhibitors, CellTiter-Glo cell viability; details: RT-112, rhHGF or rhNRG-1 250 ng/ml, 96 h; BGJ398 100 nM, Cpd. A/Cpd. B 500 nM, Lapatinib 1.5 μM; FIG. 5, FIG. 6
Experimental: RT-112 Secretome screen: The basic format was identical to the MKN-45 secretome screen with slight modifications. RT-112 cells were plated in EMEM+10% in white, tissue-culture treated 384-well plates at 1000 cells/20 μl/well and allowed to attach overnight. Supernatant from library-transfected HEK293T/17 cells was transferred as described above for the MKN-45 secretome screen. Purified proteins rhNRG1-31 and rhTGFα were added as positive controls, at a final concentration of 150 ng/ml. Following addition of supernatants and purified protein controls, BGJ398 diluted in DMEM was added at 10 μl/well for a final assay concentration of 100 nM. Cell viability was measured after 72 hours using CellTiter-Glo as described above. (FIG. 2)
RT-112 Dual Inhibition: The format for the RT-112 dual inhibition experiment was similar to that described for MKN-45 with the following modifications. RT-112 cells were plated at 1000 cells/20 μl/well. Solutions of rhHGF and rhNRG-1 were added to achieve a final concentration of 250 ng/ml. Single and dual inhibition conditions were prepared as follows: BGJ398, Cpd. A, Cpd. B, Lapatinib, BGJ398 and Cpd. A, BGJ398 and Cpd. B, BGJ398 and Lapatinib. Final concentrations for each compound, whether single or combined, were as follows: 100nM for BGJ398, 500 nM for Cpd. A and Cpd. B, and 1.5 μM for Lapatinib. After 96 hours cell viability was measured by CellTiter-Glo as previously described. (FIG. 5, FIG. 6).

[2] = system: phosphorylation of MET, ERK1/2, AKT, FRS2 in MKN-45; assay: Western blots of protein phosphorylation in MKN-45 cells
Experimental: Western Blots (Figures not Shown) MKN-45 and RT-112 cells were treated in 6-well plates for 2 hours and 18 hours in the presence or absence of purified protein (rhFGF7, rhNRG1-31, or rhHGF), and/or inhibitor (Cpd. B, Cpd. A, BGJ398). Following wash with ice-cold PBS, cells were lysed with RIPA buffer (Thermo) containing phosphatase (Thermo) and proteinase (Roche) inhibitor cocktails. Total protein was quantified by bicinchoninic protein assay (Pierce). Aliquots of 20 μg were resolved by electrophoresis on NuPAGE SDS-PAGE 4-12% BIS-Tris gels before transfer to nitrocellulose membranes. Membranes were blocked for one hour at room temperature before overnight incubation at 4° C. with the following primary antibodies (source rabbit, 1:1000 final dilution): anti-phospho-Akt (Ser473), anti-phospho-MET (Tyr1234/1235), anti-phospho-MAPK/ERK(1/2) (Thr202/Tyr204), anti-AKT, anti-MAPK/Erk(1/2), and anti-α/β-Tubulin . Anti-MET was probed at 1:800 final dilution An internal antibody was used for phospho-FRS2(Y346) (1:1500 dilution). Membranes were then washed 3 times in PBS+0.1% Tween before addition of secondary antibody, IRDye 680LT goat anti-rabbit IgG , dilution 1:15000. After one hour at room temperature, membranes were washed and bands were visualized using an Odyssey Infrared Imager.

MKN-45 cells = assay: MKN-45 Dual Inhibition: reversal of rescue with selective inhibitors, CellTiter-Glo cell viability; details: for activity on cell viability (reversal of rescue): MET-dependent MKN-45, rhFGF7 or rhNRG-1 250 ng/ml, 96 h, Cpd. A/Cpd. B 100 nM, BGJ398 500 nM, Lapatinib 1.5 μM, FIG. 3, FIG. 4
Experimental: MKN-45 Secretome screen: MKN-45 cells were plated in white, tissue-culture treated 384-well plates (Greiner) at 3000 cells/20 μl DMEM +10% FBS/well and allowed to attach overnight. Supernatant from library-transfected HEK293T/17 cells was then transferred to the MKN-45 cells at 30 μl/well using a Biomek FX liquid handler (Beckman Coulter) with pipetting speeds reduced to minimize disturbance of the HEK293T/17 monolayer. As positive controls, the purified proteins rhEGF and rhNRG1-31 (R&D Systems) were added to isolated wells on each plate for a final concentration of 150 ng/ml; supernatant from mock-transfected HEK293T/17 wells were transferred as neutral controls. Following addition of supernatants and purified protein controls, Cpd. A diluted in DMEM was added at 10 μl/well for a final assay concentration of 100 nM. After 96 hours incubation, growth was measured using the CellTiter-Glo luminescent cell viability assay system (Promega). In brief, 30 μl CellTiter-Glo reagent was added to all wells, then incubated for 15 minutes at room temperature before reading luminescence on a Viewlux plate reader (Perkin Elmer). (FIG. 1)
MKN-45 Dual Inhibition: MKN-45 cells were seeded at 3000 cells/20 μl/well in 384-well plates and incubated overnight. Solutions of rhFGF7 and rhNRG-1 were prepared in DMEM+10%FBS, then added at 30 μl/well to achieve a final concentration of 250 ng/ml (one purified protein per treatment). The following single and dual inhibition treatments were prepared in DMEM and added at […]: Cpd. A, Cpd. B, BGJ398, Lapatinib, Cpd. A and BGJ398, Cpd. B and BGJ398, Cpd. A and Lapatinib, Cpd. B and Lapatinib. Final concentrations for each compound, whether single or combined, were as follows: 100 nM for Cpd. A and Cpd. B, 500 nM for BGJ398 and 1.5 μM for Lapatinib. After 96 hours cell viability was measured by CellTiter-Glo as previously described. (FIG. 3, FIG. 4)

| SMILES | inhibition of own target as single agent (Western blot) [1] | activity on cell viability (reversal of rescue) (RT-112 cells) | effect on phosphorylation of several proteins (MET, ERK1/2, AKT, FRS2) ([2]; MKN-45, absence of added ligands) | activity on cell viability (reversal of rescue) (MKN-45 cells) | reversal of FGF7 rescue effect on FRS2 and ERK1/2 phosphorylation ([2]; MKN-45, MET inhibitor plus FGF7) | reversal of ligand-mediated rescue of proliferation (MKN-45 cells; MKN-45 in presence of MET inhibitor Cpd. A or Cpd. B, FIGS. 3, 4) |
| --- | --- | --- | --- | --- | --- | --- |
| CNC(=O)c1ccc(-c2cnc3ncc(Cc4ccc5ncccc5c4)n3n2)cc1F [Cpd. B, 2-fluoro-N-methyl-4-[(7-quinolin-6-yl-methyl)-imidazo[1,2-b]triazin-2-yl]benzamide] | effectively inhibited its own target | not sufficient | profound effect | active | – | – |
| CCN1CCN(c2ccc(Nc3cc(N(C)C(=O)Nc4c(Cl)c(OC)cc(OC)c4Cl)ncn3)cc2)CC1 [BGJ398, 3-(2,6-dichloro-3,5-dimethoxy-phenyl)-1-{6-[4-(4-ethylpiperazin-1-yl)-phenylamino]-pyrimidin-4-yl}-1-methyl-urea] | effectively inhibited its own target | active | – | not sufficient | reversed | selectively reverse rescue mediated by FGF7 |
